Assay results: publication PMC8604796 (Computers in Biology and Medicine, 2021)
Like-named read-outs stand apart in the source and are kept apart here. Numbered stars: 1 amine (or outer) side, 2 acyl side, 3 side chain; on linkers, the order of the positions; unused ones are H or OH. Bridge positions count the residues as written; N and C are the ends. Square brackets hold non-standard residues; d marks the D form. Peptide text beside a SMILES is read from it. * marks the point of attachment. pTerphenylCO(4''-OnC5H11) = CCCCCOc1ccc(-c2ccc(-c3ccc(C(=O)*)cc3)cc2)cc1; Orn(4R-OH,5R-OH) = O=C([C@H](C[C@@H](O)[C@@H](O)N[*:3])N[*:1])[*:2]; hTyr(3S-OH,4S-OH) = N[C@H](C(=O)O)[C@H](O)[C@@H](O)c1ccc(O)cc1; Pro(3S-OH,4S-Me) = C[C@H]1CN[C@H](C(=O)O)[C@H]1O; Hyp = O=C(O)[C@@H]1C[C@@H](O)CN1

Legend:
SARS-CoV-2 PLpro = SARS-CoV-2 PLpro (Severe acute respiratory syndrome coronavirus 2, UniProt P0DTD1); assay: biochemical
SARS-CoV-2 virus = conditions: read-out: IC50, in-vitro antiviral activity against the SARS-CoV-2 virus; cited from earlier work

**Q.** With `CC(C)(C)[C@@H]1NC(=O)O[C@@H]2CCC[C@H]2OC/C=C/C(F)(F)c2nc3ccccc3nc2O[C@@H]2C[C@@H](C(=O)N[C@]3(C(=O)NS(=O)(=O)C4(C)CC4)C[C@H]3C(F)F)N(C2)C1=O` [Glecaprevir] as the compound, how does the IC50 (SARS-CoV-2 PLpro) read?
**A.** 36.8 µM

**Q.** Which “inhibitory activity against PLpro (in words)” value (SARS-CoV-2 PLpro; Ubiquitin-Rhodamine 110 Gly fluorescence intensity assay) does the source give for `CCCCCOc1ccc(-c2ccc(-c3ccc(C(=O)N[C@H]4C[C@@H](O)[C@@H](O)NC(=O)[C@@H]5[C@@H](O)[C@@H](C)CN5C(=O)[C@H]([C@@H](C)O)NC(=O)[C@H]([C@H](O)[C@@H](O)c5ccc(O)cc5)NC(=O)[C@@H]5C[C@@H](O)CN5C(=O)[C@H]([C@@H](C)O)NC4=O)cc3)cc2)cc1` [Anidulafungin] ({pTerphenylCO(4''-OnC5H11)}-[Orn(4R-OH,5R-OH)]T[Hyp][hTyr(3S-OH,4S-OH)]T[Pro(3S-OH,4S-Me)]; lactam 1-C) here?
**A.** low inhibitory activity

**Q.** What about the IC50 (SARS-CoV-2 virus) of the same compound?
**A.** 4.64 µM

**Q.** Which IC50 (SARS-CoV-2 PLpro; read-out: IC50 against SARS-CoV-2 PLpro) does the source give for `Cc1cc2nc3c(=O)[nH]c(=O)nc-3n(C[C@H](O)[C@H](O)[C@H](O)COP(=O)(O)OP(=O)(O)OC[C@H]3O[C@@H](n4cnc5c(N)ncnc54)[C@H](O)[C@@H]3O)c2cc1C` [FAD disodium] here?
**A.** 12.4 µM

**Q.** Which IC50 (SARS-CoV-2 PLpro) does the source give for `CO[C@H]1/C=C/O[C@@]2(C)Oc3c(C)c(O)c4c(O)c(c(/C=N/N5CCN(C6CCCC6)CC5)c(O)c4c3C2=O)NC(=O)/C(C)=C\C=C\[C@H](C)[C@H](O)[C@@H](C)[C@@H](O)[C@@H](C)[C@H](OC(C)=O)[C@@H]1C` [Rifapentine] here?
**A.** 15.2 µM
